Source: patent publication US20240191267A1, “Tropane Alkaloid Transporters and Methods of Making Tropane Alkaloids Using the Same” (priority 2021, published 2024)
Values joined by “and” are separate entries in the source; they are usually repeats but may differ in a detail not shown here. Equal values may be shown once.

What was measured:
[1] = molecular target: T1, AbUGT (UDP-glucosyltransferase 84A27) (Atropa belladonna, UniProt A0A3B6XRM0); assay: Conversion of fed phenylpropanoids to glucosides by yeast expressing AbUGT; assay type: cell-based; conditions: AbUGT from low-copy plasmid in CSY1251; 500 μM substrate, 72 h, selective media
T1 construct: expressed in transfected cells; host or cells: Saccharomyces cerevisiae CSY1251 (tropine-producing, CEN.PK2-derived), low-copy plasmid
T1 sequence (A0A3B6XRM0 1-490): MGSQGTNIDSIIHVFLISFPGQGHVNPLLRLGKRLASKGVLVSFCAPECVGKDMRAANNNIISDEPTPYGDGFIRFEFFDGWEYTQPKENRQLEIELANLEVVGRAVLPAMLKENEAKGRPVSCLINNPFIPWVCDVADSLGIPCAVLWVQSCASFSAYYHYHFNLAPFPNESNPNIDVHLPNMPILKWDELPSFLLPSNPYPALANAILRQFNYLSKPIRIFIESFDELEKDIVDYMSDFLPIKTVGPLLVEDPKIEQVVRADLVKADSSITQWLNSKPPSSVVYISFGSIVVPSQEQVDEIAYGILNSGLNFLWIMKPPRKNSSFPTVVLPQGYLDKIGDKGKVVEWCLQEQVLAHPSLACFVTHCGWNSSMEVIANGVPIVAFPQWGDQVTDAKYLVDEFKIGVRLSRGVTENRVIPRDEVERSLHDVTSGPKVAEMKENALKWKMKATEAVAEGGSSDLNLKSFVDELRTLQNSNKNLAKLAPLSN

[2] = test system: UGT84A27 orthologs (AbUGT, BsUGT, DmUGT); assay type: cell-based, Atropa belladonna, Brugmansia sanguinea, D. metel; conditions: all three UGT orthologs, low-copy plasmids in CSY1251; 500 μM substrate, 72 h
[3] = test system: AbUGT84A27 active site mutants; assay: Conversion of fed phenylpropanoids to glucosides by yeast expressing AbUGT active site mutants; assay type: cell-based, Atropa belladonna; conditions: F130Y, L205F, I292Q point mutants of AbUGT in CSY1251; 500 μM substrate, 72 h
Method: FIG. 36 illustrates the substrate specificity of AbUGT84A27 active site mutants. […] AbUGT wild-type, active site mutants, or a BFP negative control were expressed from low-copy plasmids in CSY1251. Transformed cells were cultured in selective media supplemented with 500 μM PLA, CA, or FA for 72 h prior to LC-MS/MS analysis. Data represent the mean of n=3 biologically independent samples ±standard deviation.
6.1) As wild-type yeast produce only trace levels of PLA, production of this TA precursor must be increased to permit sufficient accumulation of downstream TAs. To improve PLA production, heterologous phenylpyruvate reductases (PPRs) may be expressed in the engineered host cells. PPR orthologs from E. coli, Lactobacillus, A. belladonna, and Wickerhamia fluorescens, as well as lactate dehydrogenases (LDHs) from Bacillus and Lactobacillus with reported activity on 3-phenylpyruvate (Table 1) were screened for activity in yeast by expressing each enzyme from a low-copy plasmid in CSY1251 and measuring PLA production by LC-MS/MS after 72 h of growth in selective media. […] As such, WfPPR was selected for integration into CSY1251 to make strain CSY1287. […] 6.4.2.1) Extra copies of PGM2 and UGP1 were expressed from low-copy plasmids in CSY1288 and PLA glucoside production was measured following 72 h of growth in selective media. […]

Strain AD1-8 = conditions: selective media
Description: (§1) Solid lines and shaded/hatched bars respectively indicate mean and standard deviation of n=3 biologically independent samples.
(§2) Heatmap values were extracted from mean growth curves in FIG. 80.
(§3) Yeast toxicity assays and growth curves. Candidate transporters for use in non-plant cells for the purpose of enhancing or modulating metabolite localization may be characterized in any suitable strain of the non-plant organism of interest. […] An example protocol for the characterization of TA transporters in yeast is provided as follows. […] Strain AD1-8 is transformed as described earlier with a low-copy plasmid harboring a constitutively expressed transporter candidate or blue fluorescent protein as negative control and a suitable auxotrophic marker, such as URA3, LEU2, TRP1, or […]. Transformants are inoculated into 1 mL of selective YNB-G media and grown overnight (˜14-18 h) at 30° C. and 460 rpm. […] Culture densities (OD600) are then measured every 30 min for 48 h in a suitable plate reader, such as a SpectraMax i3 plate reader (Molecular Devices), with chamber temperature 30° C. and orbital shaking every 30 min. […]

AbPUP1 = assay: Yeast toxicity assay and growth curves, AD1-8 expressing AbPUP1
Description: as §1, §2, §1, §1, §3

AbLP1 = assay: Yeast toxicity assay and growth curves, AD1-8 expressing AbLP1
Description: as §1, §2, §1, §1, §3

Which “percent conversion of fed phenylpropanoid to glucoside” value (from here on “percent conversion”) [1] does the source give for `O=C(O)[C@H](O)Cc1ccccc1` [PLA, (D)-3-phenyllactic acid] here?
Its value is < 3% and 2.7%.

What about the “percent conversion” value [2] of the same compound?
Its value is < 3%.

What about the “percent conversion” value [3] of the same compound?
The value was < 3%.

Which “percent conversion” value [1] does the source give for `O=C(O)/C=C/c1ccccc1` [cinnamic acid, trans-cinnamic acid] here?
The value was ~60%.

Which “θHM, ratio of time for half-maximal OD600 at 20 mM relative to at 0 mM” value (from here on “θHM, ratio … at 20 mM relative to at 0 mM”) (Strain AD1-8; AD1-8 expressing BFP control from low-copy plasmid, 0-20 mM alkaloid) does the source give for `CN1[C@@H]2CC[C@H]1CC(OC(=O)[C@H](O)Cc1ccccc1)C2` (stereo partly shown) [littorine] here?
Its value is ~1.0.

What about the “θHM, ratio … at 20 mM relative to at 0 mM” value (AbPUP1; AD1-8 expressing AbPUP1 from low-copy plasmid, selective media, 0-20 mM alkaloid) of the same compound?
The value was ~1.3.

And the “θHM, ratio … at 20 mM relative to at 0 mM” value (AbLP1; AD1-8 expressing AbLP1 from low-copy plasmid, selective media, 0-20 mM alkaloid)?
Its value is ~1.1.

`CN1[C@@H]2CC[C@H]1C[C@@H](O)C2` [tropine] was tested. Which “growth of AD1-8 at tested concentrations higher than 1 mM” value (Strain AD1-8; concentrations above 1 mM) did it give?
Its value is “severely retarded the growth”.

And the “sensitivity to alkaloid conferred by transporter expression” value (AbPUP1; AD1-8 expressing AbPUP1, tropine only at 1 mM)?
Its value is “not”.

What about the “sensitivity to alkaloid conferred by transporter expression” value (AbLP1; AD1-8 expressing AbLP1, tropine only at 1 mM) of the same compound?
The value was “not”.
